Here are results for eleven compounds from patent US12685777B2, “Compositions, systems, and methods for modulating a target gene” (The Board of Trustees of the Leland Stanford Junior …, priority 2022, dated 2026).

One test has as its target T1, bromodomain 1 of BRD4 and BTB domain of BCL6 (Homo sapiens, UniProt O60885+P41182, C67R/C84N/C8Q).
T1 construct: contains amino acids 5-129 with three mutations, C8Q, C67R, C84N
As to the kind of experiment: TR-FRET assay of ternary complex formation. In kind it is binding. The note with it: 1 hr at room temperature, 520 nm/490 nm ratio. The procedure:
Reaction was incubated for 1 hr at room temperature, and subsequently the fluorescence at 520 nm and 490 nm was measured. The 520 nm/490 nm ratio is plotted respective to DMSO control. The two lower curves are performed by addition of Neg1 and Neg2 instead of JWZ-7-7. […] The structure of JWZ-7-7 is provided in FIG. 2 and the structures of Neg1 and Neg2 are provided below:
Each reaction contained 100 nM BRD4^BD1, 100 nM BCL6BTB-Avi-Biot, 20 nM Streptavidin-FITC (Thermo #SA1001), and 1:400 anti-6×His terbium antibody (PerkinElmer #61H12TLF) in 10 μL of buffer containing 20 mM HEPES, 150 mM NaCl, 0.1% BSA, 0.1% NP-40, and 1 mM TCEP in a 384-well plate. Protein was incubated with drug digitally dispensed (Tecan D300e) for 1 hour in the dark at room temperature before excitation at 337 nm and measurement of emission at 520 nm (FITC) and 490 nm (terbium) with a PHERAstar FS plate reader (BMG Labtech). The ratio of signal at 520 nm to 490 nm was calculated and normalized to DMSO-treated conditions, and plotted.
Consider `CNC(=O)COc1cc2cc(Nc3nc(N4CCC(C(=O)NCCN5CCN(CCNC(=O)C[C@@H]6N=C(c7ccc(Cl)cc7)c7c(sc(C)c7C)-n7c(C)nnc76)CC5)CC4)ncc3Cl)cc(OC)c2n(C)c1=O` [JWZ-7-13, (S)-1-(5-chloro-4-((8-methoxy-1-methyl-3-(2-(methylamino)-2-oxoethoxy)-2-oxo-1,2-dihydroquinolin-6-yl)amino)pyrimidin-2-yl)-N-(2-(4-(2-(2-(4-(4-chlorophenyl)-2,3,9-trimethyl-6H-thieno[3,2-f][1,2,4]triazolo[4,3-a][1,4]diazepin-6-yl)acetamido)ethyl)piperazin-1-yl)ethyl)piperidine-4-carboxamide], for which the “Ternary complex formation (TR-FRET)” value is recorded as “showed ternary complex formation”. With `CNC(=O)COc1cc2cc(Nc3nc(N4CCC(C(=O)NCCCCCCCCCNC(=O)C[C@@H]5N=C(c6ccc(Cl)cc6)c6c(sc(C)c6C)-n6c(C)nnc65)CC4)ncc3Cl)cc(OC)c2n(C)c1=O` [JWZ-7-15, (S)-1-(5-chloro-4-((8-methoxy-1-methyl-3-(2-(methylamino)-2-oxoethoxy)-2-oxo-1,2-dihydroquinolin-6-yl)amino)pyrimidin-2-yl)-N-(9-(2-(4-(4-chlorophenyl)-2,3,9-trimethyl-6H-thieno[3,2-f][1,2,4]triazolo[4,3-a][1,4]diazepin-6-yl)acetamido)nonyl)piperidine-4-carboxamide], the “Ternary complex formation (TR-FRET)” value is “showed ternary complex formation”. On to `CNC(=O)COc1cc2cc(Nc3nc(N4CCC(C(=O)NCCCN(C)CCCNC(=O)C[C@@H]5N=C(c6ccc(Cl)cc6)c6c(sc(C)c6C)-n6c(C)nnc65)CC4)ncc3Cl)cc(OC)c2n(C)c1=O` [JWZ-7-100, (S)-1-(5-chloro-4-((8-methoxy-1-methyl-3-(2-(methylamino)-2-oxoethoxy)-2-oxo-1,2-dihydroquinolin-6-yl)amino)pyrimidin-2-yl)-N-(3-((3-(2-(4-(4-chlorophenyl)-2,3,9-trimethyl-6H-thieno[3,2-f][1,2,4]triazolo[4,3-a][1,4]diazepin-6-yl)acetamido)propyl)(methyl)amino)propyl)piperidine-4-carboxamide], for which the “Ternary complex formation (TR-FRET)” value is listed as “showed ternary complex formation”. Take `CNC(=O)COc1cc2cc(Nc3nc(N4CCC(C(=O)NCCCCCCNC(=O)C[C@@H]5N=C(c6ccc(Cl)cc6)c6c(sc(C)c6C)-n6c(C)nnc65)CC4)ncc3Cl)cc(OC)c2n(C)c1=O` [JWZ-7-6, (S)-1-(5-chloro-4-((8-methoxy-1-methyl-3-(2-(methylamino)-2-oxoethoxy)-2-oxo-1,2-dihydroquinolin-6-yl)amino)pyrimidin-2-yl)-N-(6-(2-(4-(4-chlorophenyl)-2,3,9-trimethyl-6H-thieno[3,2-f][1,2,4]triazolo[4,3-a][1,4]diazepin-6-yl)acetamido)hexyl)piperidine-4-carboxamide]: the “Ternary complex formation (TR-FRET)” value is recorded as “showed ternary complex formation”. For `CNC(=O)COc1cc2cc(Nc3nc(N4CCN(CCCCCCCCCCCNC(=O)C[C@@H]5N=C(c6ccc(Cl)cc6)c6c(sc(C)c6C)-n6c(C)nnc65)CC4)ncc3Cl)cc(OC)c2n(C)c1=O` [JWZ-7-22, (S)-2-((6-((5-chloro-2-(4-(11-(2-(4-(4-chlorophenyl)-2,3,9-trimethyl-6H-thieno[3,2-f][1,2,4]triazolo[4,3-a][1,4]diazepin-6-yl)acetamido)undecyl)piperazin-1-yl)pyrimidin-4-yl)amino)-8-methoxy-1-methyl-2-oxo-1,2-dihydroquinolin-3-yl)oxy)-N-methylacetamide], the “Ternary complex formation (TR-FRET)” value is given as “showed ternary complex formation”.

Consider `CNC(=O)COc1cc2cc(Nc3nc(N4CCC(C(=O)NCCCN5CCN(CCCNC(=O)C[C@@H]6N=C(c7ccc(Cl)cc7)c7c(sc(C)c7C)-n7c(C)nnc76)CC5)CC4)ncc3Cl)cc(OC)c2n(C)c1=O` [JWZ-7-14, (S)-1-(5-chloro-4-((8-methoxy-1-methyl-3-(2-(methylamino)-2-oxoethoxy)-2-oxo-1,2-dihydroquinolin-6-yl)amino)pyrimidin-2-yl)-N-(3-(4-(3-(2-(4-(4-chlorophenyl)-2,3,9-trimethyl-6H-thieno[3,2-f][1,2,4]triazolo[4,3-a][1,4]diazepin-6-yl)acetamido)propyl)piperazin-1-yl)propyl)piperidine-4-carboxamide], for which the “Ternary complex formation (TR-FRET)” value is “showed ternary complex formation”. Regarding `CNC(=O)COc1cc2cc(Nc3nc(N4CCN(CCCCCCCCNC(=O)C[C@@H]5N=C(c6ccc(Cl)cc6)c6c(sc(C)c6C)-n6c(C)nnc65)CC4)ncc3Cl)cc(OC)c2n(C)c1=O` [JWZ-7-23, (S)-2-((6-((5-chloro-2-(4-(8-(2-(4-(4-chlorophenyl)-2,3,9-trimethyl-6H-thieno[3,2-f][1,2,4]triazolo[4,3-a][1,4]diazepin-6-yl)acetamido)octyl)piperazin-1-yl)pyrimidin-4-yl)amino)-8-methoxy-1-methyl-2-oxo-1,2-dihydroquinolin-3-yl)oxy)-N-methylacetamide], the “Ternary complex formation (TR-FRET)” value is “showed ternary complex formation”. `CNC(=O)COc1cc2cc(Nc3nc(N4CCC(C(=O)NCCCOCCCNC(=O)C[C@@H]5N=C(c6ccc(Cl)cc6)c6c(sc(C)c6C)-n6c(C)nnc65)CC4)ncc3Cl)cc(OC)c2n(C)c1=O` [JWZ-7-97, (S)-1-(5-chloro-4-((8-methoxy-1-methyl-3-(2-(methylamino)-2-oxoethoxy)-2-oxo-1,2-dihydroquinolin-6-yl)amino)pyrimidin-2-yl)-N-(3-(3-(2-(4-(4-chlorophenyl)-2,3,9-trimethyl-6H-thieno[3,2-f][1,2,4]triazolo[4,3-a][1,4]diazepin-6-yl)acetamido)propoxy)propyl)piperidine-4-carboxamide]: the “Ternary complex formation (TR-FRET)” value is “showed ternary complex formation”. On the same count and under the same terms, with `CNC(=O)COc1cc2cc(Nc3nc(N4CCC(C(=O)NCCCCCCCCCCNC(=O)C[C@@H]5N=C(c6ccc(Cl)cc6)c6c(sc(C)c6C)-n6c(C)nnc65)CC4)ncc3Cl)cc(OC)c2n(C)c1=O` [JWZ-7-20, (S)-1-(5-chloro-4-((8-methoxy-1-methyl-3-(2-(methylamino)-2-oxoethoxy)-2-oxo-1,2-dihydroquinolin-6-yl)amino)pyrimidin-2-yl)-N-(10-(2-(4-(4-chlorophenyl)-2,3,9-trimethyl-6H-thieno[3,2-f][1,2,4]triazolo[4,3-a][1,4]diazepin-6-yl)acetamido)decyl)piperidine-4-carboxamide] the entry was “showed ternary complex formation”; with `CNC(=O)COc1cc2cc(Nc3nc(N4CCC(C(=O)N5CCC6(CC5)CN(CCNC(=O)C[C@@H]5N=C(c7ccc(Cl)cc7)c7c(sc(C)c7C)-n7c(C)nnc75)C6)CC4)ncc3Cl)cc(OC)c2n(C)c1=O` [JWZ-7-98, (S)-2-((6-((5-chloro-2-(4-(2-(2-(2-(4-(4-chlorophenyl)-2,3,9-trimethyl-6H-thieno[3,2-f][1,2,4]triazolo[4,3-a][1,4]diazepin-6-yl)acetamido)ethyl)-2,7-diazaspiro[3.5]nonane-7-carbonyl)piperidin-1-yl)pyrimidin-4-yl)amino)-8-methoxy-1-methyl-2-oxo-1,2-dihydroquinolin-3-yl)oxy)-N-methylacetamide], “showed ternary complex formation”.

The test system of the next test is DMS-79. As to the kind of experiment: Dose response on viability of small cell lung cancer line, resazurin assay. In kind it is cell-based. The following applies: Homo sapiens; DMS-79, 72 h treatment. The procedure: (§1) IC50 of JWZ-7-7, BI-3812, JQ1, and combinations were calculated based on a dose response curve on three small cell lung cancer lines (FIG. 5). The dose response curve on viability was performed in technical replicates and biological triplicate after treating cells for 72 hours across a broad range of concentrations via serial dilutions. Viable cells were measured after treatment via a resazurin assay. The signal for viable assays was normalized to the DMSO treated negative control. A four-parameter non-linear fit was performed to fit a curve to calculate the IC50 for each of the cell lines. The table below describes the calculated IC50 across JWZ-7-7, JQ1, BI-3812 and combination of JQ1 and BI-3812 after 72 h treatment in technical replicates and biological triplicates.
In the case of `CNC(=O)COc1cc2cc(Nc3nc(N4CCC(C(=O)N(C)C)CC4)ncc3Cl)cc(OC)c2n(C)c1=O` [BI-3812], the IC50 came out at 6.1 µM.

Another test deals with NCI-H2196. The description is as above. Format: cell-based. The note with it: Homo sapiens; NCI-H2196, 72 h treatment. As to the method:
as §1
With `CNC(=O)COc1cc2cc(Nc3nc(N4CCC(C(=O)N(C)C)CC4)ncc3Cl)cc(OC)c2n(C)c1=O` [BI-3812], the IC50 was determined as 3.5 µM.

The subject of another test is NCI-H1105. Described as above. Format: cell-based. The following applies: NCI-H1105, 72 h treatment; read-out: IC50. The procedure: as §1
On to `CNC(=O)COc1cc2cc(Nc3nc(N4CCC(C(=O)N(C)C)CC4)ncc3Cl)cc(OC)c2n(C)c1=O` [BI-3812], for which the IC50 came out at 4.3 µM.
